Key:
[1] = system: TGF-β-stimulated SMAD3 phosphorylation in BEAS-2B cells; assay: Cellular ALK5 potency assay, inhibition of TGF-β stimulated pSMAD3 formation in BEAS-2B cells; type: cell-based; conditions: Homo sapiens, pSMAD3, TGF-β 10 ng/mL, read-out: BEAS2B pIC50 (converted)
Procedure, shortened: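 Human lung epithelial BEAS-2B cells were pre-treated with compound for 1 h at 37 °C, then stimulated with TGF-β (final 10 ng/mL) for 30 min before lysis. pSMAD3 was quantified by AlphaLISA and pIC50 derived from dose-dependent signal change versus TGF-β-stimulated untreated cells.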

[2] = target: T1, recombinant human ALK5 (TGF-βR1) protein (Homo sapiens, UniProt P36897); assay: Biochemical ALK5 (TGF-βR1) assay to measure pKi (LANCE Ultra ULight kinase assay); conditions: apparent pKi, converted from pIC50 by Cheng-Prusoff
T1 construct: purchased Life Technologies PR9075A
T1 sequence (P36897 34-503): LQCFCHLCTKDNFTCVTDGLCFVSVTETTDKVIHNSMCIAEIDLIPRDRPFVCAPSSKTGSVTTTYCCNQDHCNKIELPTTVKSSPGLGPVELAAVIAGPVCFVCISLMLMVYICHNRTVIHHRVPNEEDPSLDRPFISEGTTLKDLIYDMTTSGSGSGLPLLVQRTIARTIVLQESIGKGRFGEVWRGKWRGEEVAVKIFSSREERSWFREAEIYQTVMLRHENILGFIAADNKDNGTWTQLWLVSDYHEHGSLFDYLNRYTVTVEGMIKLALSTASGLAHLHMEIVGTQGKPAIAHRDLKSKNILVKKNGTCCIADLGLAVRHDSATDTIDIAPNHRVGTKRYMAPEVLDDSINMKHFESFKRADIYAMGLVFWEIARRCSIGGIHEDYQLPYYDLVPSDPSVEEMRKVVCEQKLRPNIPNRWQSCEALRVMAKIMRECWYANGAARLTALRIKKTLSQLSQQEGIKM
Procedure, shortened: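 Enzyme was preincubated with compound for 60 min at room temperature, then ATP (added from a 125 μM 5× stock with 2 mM DTT) started a 60 min reaction at 37 °C. EDTA plus Eu-anti-phospho-Topo2α (Thr1342) antibody stopped it; TR-FRET pIC50 values were converted to pKi by Cheng-Prusoff.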

Row | SMILES | Ki [2] [nM] | IC50 [1] [nM]
1 | Cc1cccc(-c2nccc(Nc3ccnc(Nc4ccc(NCCO)cc4)n3)n2)n1 [Compound 321, 2-[4-[[4-[[2-(6-methyl-2-pyridyl)pyrimidin-4-yl]amino]pyrimidin-2-yl]amino]anilino]ethanol] | 0.398 to 3.16 | 25.1 to 158
2 | CNC1CCN(S(=O)(=O)c2cccc(Nc3nccc(Nc4ccnc(-c5cccc(C)n5)n4)n3)c2)CC1 [Compound 176, N2-[3-[[4-(methylamino)-1-piperidyl]sulfonyl]phenyl]-N4-[2-(6-methyl-2-pyridyl)pyrimidin-4-yl]pyrimidine-2,4-diamine] | 0.398 to 3.16 | 25.1 to 158
3 | CN1CCN(C2CCN(c3ccc(Nc4nccc(Nc5ccnc(-c6ccccc6F)n5)n4)cc3)CC2)CC1 [Compound 446, N4-[2-(2-fluorophenyl)pyrimidin-4-yl]-N2-[4-[4-(4-methylpiperazin-1-yl)-1-piperidyl]phenyl]pyrimidine-2,4-diamine] | 0.398 to 3.16 | 25.1 to 158
4 | Cc1cccc(-c2nccc(Nc3ccnc(Nc4ccc(CN5CCC(C(=O)OC6CCN(C)C6)CC5)cc4)n3)n2)n1 (centres unmarked) [Compound 248, (1-methylpyrrolidin-3-yl) 1-[[4-[[4-[[2-(6-methyl-2-pyridyl)pyrimidin-4-yl]amino]pyrimidin-2-yl]amino]phenyl]methyl] piperidine-4-carboxylate] | 0.0398 to 0.316 | 25.1 to 158
5 | Cc1cccc(-c2nccc(Nc3ccnc(Nc4ccc(CN5CCN(C(C)(C)C)CC5)cc4)n3)n2)n1 [Compound 109, N2-[4-[(4-tert-butylpiperazin-1-yl)methyl]phenyl]-N4-[2-(6-methyl-2-pyridyl)pyrimidin-4-yl]pyrimidine-2,4-diamine] | 0.0398 to 0.316 | 25.1 to 158
6 | Cc1cccc(-c2nccc(Nc3ccnc(Nc4ccc(N[C@H]5CCNC5)cc4)n3)n2)n1 [Compound 1, N4-[2-(6-methyl-2-pyridyl)pyrimidin-4-yl]-N2-[4-[[(3S)-pyrrolidin-3-yl]amino]phenyl]pyrimidine-2,4-diamine] | 0.0398 to 0.316 | 25.1 to 158
7 | Cc1cccc(-c2nccc(Nc3ccnc(Nc4ccc(N(C)CC5CNC5)cc4)n3)n2)n1 [Compound 202, N2-(4-((azetidin-3-ylmethyl)(methyl)amino)phenyl)-N4-(2-(6-methylpyridin-2-yl)pyrimidin-4-yl)pyrimidine-2,4-diamine] | 0.0398 to 0.316 | 25.1 to 158
8 | Cc1cccc(-c2nccc(Nc3ccnc(Nc4ccc(C(=O)OC[C@@H]5CCCN5)nc4)n3)n2)n1 [Compound 612, [(2S)-pyrrolidin-2-yl]methyl 5-[[4-[[2-(6-methyl-2-pyridyl)pyrimidin-4-yl]amino]pyrimidin-2-yl]amino]pyridine-2-carboxylate] | 0.0398 to 0.316 | 25.1 to 158
9 | Cc1cccc(-c2nccc(Nc3ccnc(Nc4ccc(NC(=O)N5C[C@@H](C)N[C@@H](C)C5)cc4)n3)n2)n1 [Compound 435, rac-(3S,5R)-3,5-dimethyl-N-[4-[[4-[[2-(6-methyl-2-pyridyl)pyrimidin-4-yl]amino]pyrimidin-2-yl]amino]phenyl]piperazine-1-carboxamide] | 0.0398 to 0.316 | 25.1 to 158
10 | Cc1cccc(-c2nccc(Nc3ccnc(Nc4ccc(C(=O)O[C@H]5CCNC5)nc4)n3)n2)n1 [Compound 547, [(3S)-pyrrolidin-3-yl] 5-[[4-[[2-(6-methyl-2-pyridyl)pyrimidin-4-yl]amino]pyrimidin-2-yl]amino]pyridine-2-carboxylate] | 0.0398 to 0.316 | 25.1 to 158
11 | Cc1cccc(-c2nccc(Nc3ccnc(Nc4ccc(N5C6CCC5CNC6)cc4)n3)n2)n1 [Compound 221, N2-(4-(3,8-diazabicyclo[3.2.1]octan-8-yl)phenyl)-N4-(2-(6-methylpyridin-2-yl)pyrimidin-4-yl)pyrimidine-2,4-diamine] | 0.0398 to 0.316 | 25.1 to 158
12 | Cc1cccc(-c2nccc(Nc3ccnc(Nc4ccc(S(=O)(=O)NCCN(C)C)cc4)n3)n2)n1 [Compound 70, N-[2-(dimethylamino)ethyl]-4-[[4-[[2-(6-methyl-2-pyridyl)pyrimidin-4-yl]amino]pyrimidin-2-yl]amino]benzenesulfonamide] | 0.0398 to 0.316 | 25.1 to 158

The next lines start with results.

Row | Ki [2] [nM] | SMILES | IC50 [1] [nM]
13 | 0.0398 to 0.316 | Cc1cccc(-c2nccc(Nc3ccnc(Nc4ccc5c(c4)CC4(CCNC4)C5)n3)n2)n1 (centres unmarked) [Compound 277, N2-(1,3-dihydrospiro[indene-2,3′-pyrrolidin]-5-yl)-N4-(2-(6-methylpyridin-2-yl)pyrimidin-4-yl)pyrimidine-2,4-diamine] | 25.1 to 158
14 | 0.0398 to 0.316 | COC1CN(Cc2ccc(Nc3nccc(Nc4ccnc(-c5cccc(C)n5)n4)n3)cc2)C1 [Compound 127, N2-[4-[(3-methoxyazetidin-1-yl)methyl]phenyl]-N4-[2-(6-methyl-2-pyridyl)pyrimidin-4-yl]pyrimidine-2,4-diamine] | 25.1 to 158
15 | 0.0398 to 0.316 | Cc1cccc(-c2nccc(Nc3ccnc(Nc4nc(C(=O)NCC5(CO)CNC5)cs4)n3)n2)n1 [Compound 140, N-[[3-(hydroxymethyl)azetidin-3-yl]methyl]-2-[[4-[[2-(6-methyl-2-pyridyl)pyrimidin-4-yl]amino]pyrimidin-2-yl]amino]thiazole-4-carboxamide] | 25.1 to 158
16 | 0.0398 to 0.316 | Cc1cccc(-c2nccc(Nc3ccnc(Nc4ccc(C5CCNCC5)cc4)n3)n2)n1 [Compound 133, N4-[2-(6-methyl-2-pyridyl)pyrimidin-4-yl]-N2-[4-(4-piperidyl)phenyl]pyrimidine-2,4-diamine] | 25.1 to 158
17 | 0.0398 to 0.316 | COC(=O)[C@@H]1CN(Cc2ccc(Nc3nccc(Nc4ccnc(-c5cccc(C)n5)n4)n3)cc2)CCN1 [Compound 254, methyl (2S)-4-[[4-[[4-[[2-(6-methyl-2-pyridyl)pyrimidin-4-yl]amino]pyrimidin-2-yl]amino]phenyl]methyl] piperazine-2-carboxylate] | ≤ 20
18 | 0.0398 to 0.316 | Cc1cccc(-c2nccc(Nc3ccnc(Nc4ccc(C(=O)OC[C@H]5CNCCO5)nc4)n3)n2)n1 [Compound 605, [(2R)-morpholin-2-yl]methyl 5-[[4-[[2-(6-methyl-2-pyridyl)pyrimidin-4-yl]amino]pyrimidin-2-yl]amino]pyridine-2-carboxylate] | 200 to 1260
19 | 0.0398 to 0.316 | Cc1cccc(-c2nccc(Nc3ccnc(Nc4ccc(N5CCN(Cc6ccccn6)CC5)cc4)n3)n2)n1 [Compound 136, N4-[2-(6-methyl-2-pyridyl)pyrimidin-4-yl]-N2-[4-[4-(2-pyridylmethyl)piperazin-1-yl]phenyl]pyrimidine-2,4-diamine] | 25.1 to 158
20 | 0.0398 to 0.316 | Cc1cccc(-c2nccc(Nc3ccnc(Nc4ccc(N(C)C(=O)C5CCNCC5)cc4)n3)n2)n1 [Compound 416, N-methyl-N-[4-[[4-[[2-(6-methyl-2-pyridyl)pyrimidin-4-yl]amino]pyrimidin-2-yl]amino]phenyl]piperidine-4-carboxamide] | 200 to 1260
21 | 0.0398 to 0.316 | Cc1cccc(-c2nccc(Nc3ccnc(Nc4cccc(NC(=O)N5CCN(C(C)C)CC5)c4)n3)n2)n1 [Compound 531, 4-isopropyl-N-[3-[[4-[[2-(6-methyl-2-pyridyl)pyrimidin-4-yl]amino]pyrimidin-2-yl]amino]phenyl]piperazine-1-carboxamide] | 25.1 to 158
22 | 0.0398 to 0.316 | Cc1cccc(-c2nccc(Nc3ccnc(Nc4ccc(C(=O)O[C@@H]5CCN(C)C5)s4)n3)n2)n1 [Compound 52, [(3R)-1-methylpyrrolidin-3-yl] 5-[[4-[[2-(6-methyl-2-pyridyl)pyrimidin-4-yl]amino]pyrimidin-2-yl]amino]thiophene-2-carboxylate] | 25.1 to 158
23 | 0.0398 to 0.316 | Cc1cccc(-c2nccc(Nc3ccnc(Nc4nc(CN5CCC[C@@H](C(=O)O[C@@H]6CCN(C)C6)C5)cs4)n3)n2)n1 [Compound 460, [(3R)-1-methylpyrrolidin-3-yl] (3R)-1-[[2-[[4-[[2-(6-methyl-2-pyridyl)pyrimidin-4-yl]amino]pyrimidin-2-yl]amino]thiazol-4-yl]methyl]piperidine-3-carboxylate] | 25.1 to 158
24 | 0.0398 to 0.316 | Cc1cccc(-c2nccc(Nc3ccnc(Nc4ccc(NC(=O)C5CCNCC5)c(Cl)c4)n3)n2)n1 [Compound 158, N-[2-chloro-4-[[4-[[2-(6-methyl-2-pyridyl)pyrimidin-4-yl]amino]pyrimidin-2-yl]amino]phenyl]piperidine-4-carboxamide] | 25.1 to 158
25 | 0.0398 to 0.316 | Cc1cccc(-c2nccc(Nc3ccnc(Nc4ccc(C)c(NC(=O)C5CCNCC5)c4)n3)n2)n1 [Compound 128, N-[2-methyl-5-[[4-[[2-(6-methyl-2-pyridyl)pyrimidin-4-yl]amino]pyrimidin-2-yl]amino]phenyl]piperidine-4-carboxamide] | ≤ 20

— patent publication US20230399312A1, “SUBSTITUTED PYRIMIDINES AND METHODS OF USE” (THERAVANCE BIOPHARMA R&D IP, LLC, priority 2020, published 2023)
